The source of these data is US12540118B2, “Dendrene amide compound, bactericide and use thereof” (Jiangsu Flag Chemical Industry Co., Ltd., priority 2020, dated 2026).

In one assay the target is T1, succinate dehydrogenase (Sus scrofa, UniProt A5GZW8+D0VWV4+Q007T0).
T1 construct: isolated from porcine hearts; from tissue; host or cells: porcine heart
The assay is described as follows: Enzyme activity assay, succinate dehydrogenase (DCIP reduction). It is filed as biochemical, porcine. Particulars: read-out: Inhibitors (10 μM, SQR). Put shortly:
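Porcine heart succinate dehydrogenase (2 nM) in 100 mM sodium phosphate pH 7.4, 0.3 mM EDTA, 20 mM sodium succinate and 53 μM DCIP at 23° C with stirring. DCIP reduction followed at 600 nm (ε 21 mM^−1 cm^−1); linear slope minus baseline gives initial rate.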

Another assay deals with Erysiphe graminis. Put plainly: Erysiphe graminis potting method. It is filed as in vivo. Particulars: Blumeria graminis; 100 mg/L; read-out: Erysiphe graminis control rating. The method, then:
The fungicidal activity of the control agents and target compounds are determined. The test and investigation method refers to SOP-SC-1116 Erysiphe graminis potting method in disinfectant rolls written by KANGZHUO and GUBAOGEN in “Standard operation specification for testing biological activity of pesticides”.

In another assay the test system is Sphaerotheca fuliginea. Put plainly: Sphaerotheca fuliginea potting method. It is filed as in vivo. Particulars: Podosphaera fuliginea; 100 mg/L; read-out: Sphaerotheca fuliginea control rating. The method, then: The fungicidal activity of the control agents and target compounds are determined. The test and investigation method refers to SOP-SC-1101 sphaerotheca fuliginea potting method in disinfectant rolls written by KANGZHUO and GUBAOGEN in “Standard operation specification for testing biological activity of pesticides”.

Where only a bound is given, the exact number is not on record here.

T1 sequence (Q0QF01 43-664 partner): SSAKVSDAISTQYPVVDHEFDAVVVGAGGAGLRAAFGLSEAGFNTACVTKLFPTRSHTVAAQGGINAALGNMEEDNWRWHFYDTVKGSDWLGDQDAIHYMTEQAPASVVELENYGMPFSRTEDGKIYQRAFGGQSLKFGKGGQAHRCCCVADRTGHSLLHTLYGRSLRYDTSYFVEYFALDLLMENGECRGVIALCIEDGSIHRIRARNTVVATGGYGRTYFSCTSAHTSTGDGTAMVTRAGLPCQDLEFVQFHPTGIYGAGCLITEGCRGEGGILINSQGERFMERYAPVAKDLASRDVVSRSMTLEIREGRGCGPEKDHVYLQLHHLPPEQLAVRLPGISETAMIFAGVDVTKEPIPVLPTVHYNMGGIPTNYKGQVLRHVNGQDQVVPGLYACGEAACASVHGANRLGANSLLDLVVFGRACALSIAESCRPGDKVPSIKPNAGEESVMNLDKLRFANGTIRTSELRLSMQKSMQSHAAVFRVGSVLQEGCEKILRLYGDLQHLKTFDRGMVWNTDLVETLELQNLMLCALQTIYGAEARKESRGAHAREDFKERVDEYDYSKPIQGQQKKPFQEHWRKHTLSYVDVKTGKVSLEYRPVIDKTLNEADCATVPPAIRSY
T1 sequence (Q007T0 29-280): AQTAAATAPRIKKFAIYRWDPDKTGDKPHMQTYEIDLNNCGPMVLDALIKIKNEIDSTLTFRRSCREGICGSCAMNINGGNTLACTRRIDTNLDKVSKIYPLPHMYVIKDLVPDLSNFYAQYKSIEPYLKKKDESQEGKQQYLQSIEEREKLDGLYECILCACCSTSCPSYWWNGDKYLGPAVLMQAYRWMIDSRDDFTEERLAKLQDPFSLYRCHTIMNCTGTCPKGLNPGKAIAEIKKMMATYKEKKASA
T1 sequence (D0VWV4 30-169): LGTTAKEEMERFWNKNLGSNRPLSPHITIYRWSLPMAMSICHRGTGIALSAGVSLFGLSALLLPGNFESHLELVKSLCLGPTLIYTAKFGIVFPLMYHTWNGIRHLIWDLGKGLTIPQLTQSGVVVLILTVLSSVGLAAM
T1 sequence (A5GZW8 57-159 limits assumed): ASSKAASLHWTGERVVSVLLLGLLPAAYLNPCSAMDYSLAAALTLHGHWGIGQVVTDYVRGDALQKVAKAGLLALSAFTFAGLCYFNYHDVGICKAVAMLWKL

`C=C(c1ccc(F)cc1)C(C)N(C(=O)c1c(C(F)F)nn(C)c1F)C1CC1` (stereo not drawn) [Compound 68]: the inhibition at 10 µM at succinate dehydrogenase was more than 90%. Further, the pest or weed control at 100 µg/mL in the assay on Erysiphe graminis and in the assay with Sphaerotheca fuliginea was 80 to 100% in each case.
Consider `C=C(CN(C(=O)c1c(C(F)F)nn(C)c1F)C1CC1)c1c(Br)cc(Br)cc1Br` [Compound 31], for which the inhibition at 10 µM on succinate dehydrogenase is more than 90%. In addition, the pest or weed control at 100 µg/mL in the assay with Erysiphe graminis and in the assay on Sphaerotheca fuliginea was 80 to 100% in each case.
`Cn1nc(C(F)F)c(C(=O)N(CC(=C(Cl)Cl)c2cc(F)ccc2F)C2CC2)c1F` [Compound 127]: at succinate dehydrogenase, the inhibition at 10 µM was more than 90%. In addition, the pest or weed control at 100 µg/mL in the assay on Erysiphe graminis and in the assay on Sphaerotheca fuliginea was 80 to 100% throughout.
With `C=C(c1cc(C)ccc1C(C)(C)C)C(C)N(C(=O)c1c(C(F)F)nn(C)c1F)C1CC1` (stereo not drawn) [Compound 94], the inhibition at 10 µM at succinate dehydrogenase was more than 90%. The pest or weed control at 100 µg/mL in the assay with Erysiphe graminis and with Sphaerotheca fuliginea was 80 to 100% throughout.
As for `CC(C(=C(Cl)Cl)c1ccc(F)cc1)N(C(=O)c1c(C(F)F)nn(C)c1F)C1CC1` (stereo not drawn) [Compound 178], the inhibition at 10 µM at succinate dehydrogenase is more than 90%. Also, the pest or weed control at 100 µg/mL in the assay on Erysiphe graminis and in the assay with Sphaerotheca fuliginea was 80 to 100% each time.
On to `CC(C(=C(Cl)Cl)c1c(Br)cc(Br)cc1Br)N(C(=O)c1c(C(F)F)nn(C)c1F)C1CC1` (stereo not drawn) [Compound 190], for which the inhibition at 10 µM on succinate dehydrogenase is more than 90%. Besides, the pest or weed control at 100 µg/mL with Erysiphe graminis and in the assay on Sphaerotheca fuliginea was 80 to 100% in each case.
On to `Cc1ccc(C(C)C)cc1C(CN(C(=O)c1c(C(F)F)nn(C)c1F)C1CC1)=C(Cl)Cl` [Compound 144], for which, at succinate dehydrogenase, the inhibition at 10 µM is more than 90%. Also, the pest or weed control at 100 µg/mL in the assay with Erysiphe graminis and in the assay on Sphaerotheca fuliginea was 80 to 100% each time.
As to `CC(C(=C(Cl)Cl)c1c(Br)cccc1Br)N(C(=O)c1c(C(F)F)nn(C)c1F)C1CC1` (stereo not drawn) [Compound 189], the inhibition at 10 µM at succinate dehydrogenase is more than 90%. Further, the pest or weed control at 100 µg/mL in the assay on Erysiphe graminis and in the assay with Sphaerotheca fuliginea was 80 to 100% each time.
`Cc1ccccc1C(=C(Cl)Cl)C(C)N(C(=O)c1c(C(F)F)nn(C)c1F)C1CC1` (stereo not drawn) [Compound 202]: the inhibition at 10 µM on succinate dehydrogenase is more than 90%. Also, the pest or weed control at 100 µg/mL in the assay on Erysiphe graminis and in the assay on Sphaerotheca fuliginea was 80 to 100% each time.
With `CC(C(=C(Cl)Cl)c1ccc(C(F)(F)F)cc1Cl)N(C(=O)c1c(C(F)F)nn(C)c1F)C1CC1` (stereo not drawn) [Compound 211], the inhibition at 10 µM on succinate dehydrogenase was more than 90%. Moreover, the pest or weed control at 100 µg/mL in the assay on Erysiphe graminis and in the assay on Sphaerotheca fuliginea was 80 to 100% each time.
Take `CC(C(=C(Cl)Cl)c1ccc(F)cc1F)N(C(=O)c1c(C(F)F)nn(C)c1F)C1CC1` (stereo not drawn) [Compound 179]: the inhibition at 10 µM at succinate dehydrogenase is more than 90%. The pest or weed control at 100 µg/mL with Erysiphe graminis and in the assay with Sphaerotheca fuliginea was 80 to 100% each time.
Take `CC(C(=C(Cl)Cl)c1ccccc1Br)N(C(=O)c1c(C(F)F)nn(C)c1F)C1CC1` (stereo not drawn) [Compound 185]: at succinate dehydrogenase, the inhibition at 10 µM was more than 90%. Further, the pest or weed control at 100 µg/mL in the assay on Erysiphe graminis and in the assay on Sphaerotheca fuliginea was 80 to 100% each time.
On to `Cn1nc(C(F)F)c(C(=O)N(CC(=C(Cl)Cl)c2ccc(F)c(F)c2)C2CC2)c1F` [Compound 130], for which the inhibition at 10 µM at succinate dehydrogenase is more than 90%. The pest or weed control at 100 µg/mL with Erysiphe graminis and in the assay with Sphaerotheca fuliginea was 80 to 100% in each case.
Take `Cn1nc(C(F)F)c(C(=O)N(CC(=C(Cl)Cl)c2c(Br)cccc2Br)C2CC2)c1F` [Compound 136]: the inhibition at 10 µM on succinate dehydrogenase is more than 90%. Also, the pest or weed control at 100 µg/mL with Erysiphe graminis and with Sphaerotheca fuliginea was 80 to 100% in each case.
As for `C=C(c1cccc(S(=O)(=O)CC)c1)C(C)N(C(=O)c1c(C(F)F)nn(C)c1F)C1CC1` (stereo not drawn) [Compound 108], the inhibition at 10 µM on succinate dehydrogenase was more than 90%. In addition, the pest or weed control at 100 µg/mL in the assay with Erysiphe graminis and in the assay on Sphaerotheca fuliginea was 80 to 100% in each case.
Consider `C=C(CN(C(=O)c1c(C(F)F)nn(C)c1F)C1CC1)c1ccc(C(C)C)cc1C` [Compound 41], for which the inhibition at 10 µM on succinate dehydrogenase was more than 90%. The pest or weed control at 100 µg/mL with Erysiphe graminis and in the assay on Sphaerotheca fuliginea was 80 to 100% each time.
Take `CC(C(=C(Cl)Cl)c1ccc(Br)cc1)N(C(=O)c1c(C(F)F)nn(C)c1F)C1CC1` (stereo not drawn) [Compound 184]: at succinate dehydrogenase, the inhibition at 10 µM was more than 90%. The pest or weed control at 100 µg/mL in the assay with Erysiphe graminis and in the assay on Sphaerotheca fuliginea was 80 to 100% in each case.
Regarding `C=C(CN(C(=O)c1c(C(F)F)nn(C)c1F)C1CC1)c1ccc(S(C)(=O)=O)cc1` [Compound 15], the inhibition at 10 µM on succinate dehydrogenase is more than 90%. Moreover, the pest or weed control at 100 µg/mL in the assay on Erysiphe graminis lay within 80 to 100%; with Sphaerotheca fuliginea it was 70 to 80%.
In the same order, the values of `Cc1ccc(C(C)(C)C)cc1C(CN(C(=O)c1c(C(F)F)nn(C)c1F)C1CC1)=C(Cl)Cl` [Compound 147] are more than 90%, 80 to 100% and 80 to 100%.
On the same counts, the results for `CC(C(=C(Cl)Cl)c1ccc(F)c(F)c1)N(C(=O)c1c(C(F)F)nn(C)c1F)C1CC1` (stereo not drawn) [Compound 183] are more than 90%, 80 to 100% and 80 to 100%.
On the same counts, the results for `Cn1nc(C(F)F)c(C(=O)N(CC(=C(Cl)Cl)c2ccccc2F)C2CC2)c1F` [Compound 115] are more than 90%, 80 to 100% and 80 to 100%.
As to `C=C(c1cc(C(F)(F)F)ccc1Cl)C(C)N(C(=O)c1c(C(F)F)nn(C)c1F)C1CC1` (stereo not drawn) [Compound 100], the inhibition at 10 µM on succinate dehydrogenase was more than 90%. Also, the pest or weed control at 100 µg/mL in the assay on Erysiphe graminis and with Sphaerotheca fuliginea was 80 to 100% in each case.
On to `C=C(CN(C(=O)c1c(C(F)F)nn(C)c1F)C1CC1)c1cc(Cl)cc(Cl)c1` [Compound 2], for which the inhibition at 10 µM at succinate dehydrogenase is more than 90%. The pest or weed control at 100 µg/mL in the assay with Erysiphe graminis and with Sphaerotheca fuliginea was 80 to 100% throughout.
For `Cc1ccc(C(CN(C(=O)c2c(C(F)F)nn(C)c2F)C2CC2)=C(Cl)Cl)cc1` [Compound 150], on succinate dehydrogenase, the inhibition at 10 µM was more than 90%. In addition, the pest or weed control at 100 µg/mL in the assay with Erysiphe graminis and in the assay on Sphaerotheca fuliginea was 80 to 100% in each case.
On to `C=C(c1c(C)cc(C)cc1C)C(C)N(C(=O)c1c(C(F)F)nn(C)c1F)C1CC1` (stereo not drawn) [Compound 91], for which the inhibition at 10 µM at succinate dehydrogenase is more than 90%. The pest or weed control at 100 µg/mL in the assay on Erysiphe graminis and with Sphaerotheca fuliginea was 80 to 100% throughout.
Take `C=C(CN(C(=O)c1c(C(F)F)nn(C)c1F)C1CC1)c1ccc(Br)cc1Br` [Compound 28]: at succinate dehydrogenase, the inhibition at 10 µM was more than 90%. For the same molecule, the pest or weed control at 100 µg/mL in the assay with Erysiphe graminis and in the assay on Sphaerotheca fuliginea was 80 to 100% each time.
Consider `CC(C(=C(Cl)Cl)c1cc(Cl)cc(Cl)c1)N(C(=O)c1c(C(F)F)nn(C)c1F)C1CC1` (stereo not drawn) [Compound 174], for which the inhibition at 10 µM at succinate dehydrogenase is more than 90%. Further, the pest or weed control at 100 µg/mL with Erysiphe graminis and in the assay on Sphaerotheca fuliginea was 80 to 100% in each case.
For the molecule `C=C(c1ccc(C)cc1C)C(C)N(C(=O)c1c(C(F)F)nn(C)c1F)C1CC1` (stereo not drawn) [Compound 88], at succinate dehydrogenase, the inhibition at 10 µM is more than 90%. Besides, the pest or weed control at 100 µg/mL in the assay with Erysiphe graminis and with Sphaerotheca fuliginea was 80 to 100% throughout.
On to `Cc1cccc(C(=C(Cl)Cl)C(C)N(C(=O)c2c(C(F)F)nn(C)c2F)C2CC2)c1` (stereo not drawn) [Compound 192], for which the inhibition at 10 µM at succinate dehydrogenase is more than 90%. Also, the pest or weed control at 100 µg/mL in the assay on Erysiphe graminis and with Sphaerotheca fuliginea was 80 to 100% throughout.
Turning to `Cn1nc(C(F)F)c(C(=O)N(CC(=C(Cl)Cl)c2ccc(Cl)cc2Cl)C2CC2)c1F` [Compound 118], the inhibition at 10 µM at succinate dehydrogenase is more than 90%. In addition, the pest or weed control at 100 µg/mL in the assay with Erysiphe graminis and in the assay on Sphaerotheca fuliginea was 80 to 100% in each case.
In the case of `Cc1ccc(C(=C(Cl)Cl)C(C)N(C(=O)c2c(C(F)F)nn(C)c2F)C2CC2)c(C)c1` (stereo not drawn) [Compound 193], on succinate dehydrogenase, the inhibition at 10 µM was more than 90%. Further, the pest or weed control at 100 µg/mL with Erysiphe graminis and in the assay on Sphaerotheca fuliginea was 80 to 100% throughout.
For `CC(C(=C(Cl)Cl)c1cc(Br)ccc1Br)N(C(=O)c1c(C(F)F)nn(C)c1F)C1CC1` (stereo not drawn) [Compound 188], the inhibition at 10 µM at succinate dehydrogenase was more than 90%. For the same molecule, the pest or weed control at 100 µg/mL in the assay on Erysiphe graminis and in the assay on Sphaerotheca fuliginea was 80 to 100% each time.
For `C=C(CN(C(=O)c1c(C(F)F)nn(C)c1F)C1CC1)c1cc(Br)ccc1Br` [Compound 29], the inhibition at 10 µM on succinate dehydrogenase was more than 90%. In addition, the pest or weed control at 100 µg/mL with Erysiphe graminis and in the assay with Sphaerotheca fuliginea was 80 to 100% throughout.
`Cc1cc(C(C)C)ccc1C(=C(Cl)Cl)C(C)N(C(=O)c1c(C(F)F)nn(C)c1F)C1CC1` (stereo not drawn) [Compound 201]: the inhibition at 10 µM at succinate dehydrogenase is more than 90%. The pest or weed control at 100 µg/mL in the assay with Erysiphe graminis and in the assay with Sphaerotheca fuliginea was 80 to 100% throughout.
As for `CC(C(=C(Cl)Cl)c1c(F)cc(F)cc1F)N(C(=O)c1c(C(F)F)nn(C)c1F)C1CC1` (stereo not drawn) [Compound 182], on succinate dehydrogenase, the inhibition at 10 µM was more than 90%. The pest or weed control at 100 µg/mL with Erysiphe graminis and in the assay on Sphaerotheca fuliginea was 80 to 100% each time.
Consider `C=C(c1ccc(C#CC2CC2)cc1F)C(C)N(C(=O)c1c(C(F)F)nn(C)c1F)C1CC1` (stereo not drawn) [Compound 110], for which the inhibition at 10 µM on succinate dehydrogenase was more than 90%. The pest or weed control at 100 µg/mL in the assay on Erysiphe graminis and in the assay on Sphaerotheca fuliginea was 80 to 100% in each case.
With `C=C(CN(C(=O)c1c(C(F)F)nn(C)c1F)C1CC1)c1c(F)cc(F)cc1F` [Compound 26], the inhibition at 10 µM on succinate dehydrogenase is more than 90%. The pest or weed control at 100 µg/mL in the assay with Erysiphe graminis and in the assay with Sphaerotheca fuliginea was 80 to 100% in each case.
